Data from patent publication US7405228B2, “Antibacterial cyano-(substituted)-methylenepiperidinophenyl oxazolidinones targeting multiple ribonucleoprotein sites” (Wockhardt Limited, priority 2002, dated 2008).

`CC(=O)NC[C@H]1CN(c2ccc(N3CC/C(=C\C#N)C(C)C3)c(F)c2)C(=O)O1` (stereo partly drawn) [Example 63, (S)-N-{3-[4-(4-cyanomethylidene-3-methylpiperidin-1-yl)-3-fluorophenyl]-2-oxo-oxazolidin-5-ylmethyl}-acetamide] gave a melting point of 152 to 153 °C.
Compound `N#CC=C1CCN(c2ccc(N3C[C@H](CN=C=O)OC3=O)cc2F)CC1` (stereo in doubt) has a melting point of 172 to 174 °C.
Work on `CC(=O)NC[C@H]1CN(c2ccc(N3CCC(=C(C#N)n4cncn4)CC3)c(F)c2)C(=O)O1` [Example 104, (S)-N-{3-[4-(4-(1-cyano-1-(1,2,4-triazol-1-yl)-methylidene)-piperidin-1-yl)-3fluorophenyl]-2-oxo-oxazolidin-5-ylmethyl}-acetamide] yielded a melting point of 194 to 196 °C.
Work on `N#CC=C1CCN(c2ccc(N3C[C@H](CNC(=O)CBr)OC3=O)cc2F)CC1` [Example 34, (S)-N-{3-[4-(4-cyanomethylidene-piperidin-1-yl)-3-fluorophenyl]-2-oxo-oxazolidin-5-ylmethyl}-bromoacetamide] yielded a melting point of 160 to 162 °C.
`N#CC=C1CCN(c2ccc(N3C[C@H](CNC(=O)[C@@H](N)Cc4c[nH]cn4)OC3=O)cc2F)CC1` [Example 43, (2S, 5S){N-{3-[4-(4-cyanomethylidene-piperidin-1-yl)-3-fluorophenyl]-2-oxo-oxazolidin-5-ylmethyl}-3-(imidazol-4-yl)-propionamid-2-yl}-amine] showed a melting point of 93 to 96 °C.
`N#CC=C1CCN(c2ccc(N3C[C@H](CN4C(=O)c5ccccc5C4=O)OC3=O)cc2F)CC1` [Example 44, (S)-N-{3-[4-(4-cyanomethylidene-piperidin-1-yl)-3-fluorophenyl]-2-oxo-oxazolidin-5-ylmethyl}-1-pthalamide] gave a melting point of 183 to 185 °C.
Work on `CC(=O)NC[C@H]1CN(c2ccc(N3CCC(=C(C#N)n4ccnc4)CC3)c(F)c2)C(=O)O1` [Example 102, (S)-N-{3-[4-(4-(1-cyano-1-(imidazol-1-yl)-methylidene)-piperidin-1-yl)-3-fluorophenyl]-2-oxo-oxazolidin-5-ylmethyl}-acetamide] yielded a melting point of 196 to 198 °C.
Compound `C[C@H](N)C(=O)NC[C@H]1CN(c2ccc(N3CCC(=CC#N)CC3)c(F)c2)C(=O)O1` [Example 41, (2S, 5S)-{N-{3-[4-(4-cyanomethylidene-piperidin-1-yl)-3-fluorophenyl]-2-oxo-oxazolidin-5-ylmethyl}-propionamid-2-yl}-amine] has a melting point of 103 to 105 °C.
With `CC1CN(c2ccc(N3C[C@H](CNc4nccs4)OC3=O)cc2F)CC/C1=C\C#N` (stereo partly drawn) [Example 66, (S)-2-{3-[4-(4-cyanomethylidene-3-methylpiperidin-1-yl)-3-fluorophenyl]-2-oxo-oxazolidin-5-ylmethylamino}-1,3-thiazole] the melting point was 75 to 77 °C.
For `N#CC=C1CCN(c2ccc(N3C[C@H](CNC=O)OC3=O)cc2F)CC1` [Example 8, (S)-N-{3-[4-(4-cyanomethylidene-piperidin-1-yl)-3-fluorophenyl]-2-oxo-oxazolidin-5-ylmethyl}-formamide], the melting point was 183 to 184 °C.
For `CS(=O)(=O)OC[C@H]1CN(c2ccc(N3CCC(C(C#N)C(N)=O)CC3)c(F)c2)C(=O)O1` (stereo partly drawn) [Example 158, (R)-{3-[4-(4-(1-cyano-1-carboxamido)-methylpiperidin-1-yl)-3-fluorophenyl]-2-oxo-oxazolidin-5-ylmethyl}-methanesulphonate], the melting point was 220 to 222 °C.
In the case of `CC(=O)NC[C@H]1CN(c2ccc(N3CC/C(=C/C#N)C(C)(C)C3)c(F)c2)C(=O)O1` [Example 70, (S)-N-{3-[4-(4-cyanomethylidene-3,3-dimethylpiperidin-1-yl)-3-fluorophenyl]-2-oxo-oxazolidin-5-ylmethyl}-acetamide], the melting point is reported as 150 to 152 °C.
Compound `N#CC=C1CCN(c2ccc(N3C[C@H](CNC(=O)CC#N)OC3=O)cc2F)CC1` [Example 23, (S)-N-{3-[4-(4-cyanomethylidene-piperidin-1-yl)-3-fluorophenyl]-2-oxo-oxazolidin-5-ylmethyl}-2-cyanoacetamide] has a melting point of 150 to 152 °C.
Compound `CCOC(=O)c1cn(CC2CN(c3ccc(N4CCC(CC#N)CC4)cc3)C(=O)O2)nn1` (stereo in doubt) [Example 123, (S)-1-{3-[4-(4-cyanomethyl-piperidin-1-yl)-phenyl]-2-oxo-oxazolidin-5-ylmethyl}-4-carboethoxy-1,2,3-triazole] has a melting point of 198 to 200 °C.
For `N#CC=C1CCN(c2ccc(N3CC(CN=[N+]=[N-])OC3=O)cc2)CC1` (stereo in doubt) [Example 1, (S)-{3-[4-(4-cyanomethylidene-piperidin-1-yl)-phenyl]-2-oxo-oxazolidin-5-ylmethyl}-azide], the melting point was 80 to 82 °C.
`CC(=O)NC[C@H]1CN(c2ccc(N3CCC(C(C#N)COS(C)(=O)=O)CC3)c(F)c2)C(=O)O1` (stereo partly drawn) [Example 134, (S)-N-{3-[4-(4-(1-cyano-2-methanesulphonyloxy)-ethylpiperidin-1-yl)-3-fluorophenyl]-2-oxo-oxazolidin-5-ylmethyl}-acetamide] showed a melting point of 136 to 138 °C.
Work on `N#CC=C1CCN(c2ccc(N3C[C@H](CNC(=O)C(N)CO)OC3=O)cc2F)CC1` (stereo partly drawn) [Example 42, (2S, 5S)-{N-{3-[4-(4-cyanomethylidene-piperidin-1-yl)-3-fluorophenyl]-2-oxo-oxazolidin-5-ylmethyl}-3-hydroxypropionamid-2-yl}-amine] yielded a melting point of 88 to 90 °C.
`CCOC(=O)c1cnnn1C[C@H]1CN(c2ccc(N3CCC(C(C#N)CO)CC3)c(F)c2)C(=O)O1` (stereo partly drawn) [Example 152, (S)-1-{3-[4-(4-(1-cyano-2-hydroxy)-ethylpiperidin-1-yl)-3-fluorophenyl]-2-oxo-oxazolidin-5-ylmethyl}-5-ethoxycarbonyl-1,2,3-triazole] showed a melting point of 76 to 78 °C.
Work on `CS(=O)(=O)OC[C@H]1CN(c2ccc(N3CCC(CC#N)CC3)cc2)C(=O)O1` [Example 125, (R)-{3-[4-(4-cyanomethyl-piperidin-1-yl)-phenyl]-2-oxo-oxazolidin-5-ylmethyl}-methanesulphonate] yielded a melting point of 114 to 116 °C.
With `CC(=O)NC[C@H]1CN(c2ccc(N3CCC(=C(C#N)CCO)CC3)c(F)c2)C(=O)O1` [Example 113, (S)-N-{3-[4-(4-(1-cyano-3-hydroxy-propylidene)-piperidin-1-yl)-3-fluorophenyl]-2-oxo-oxazolidin-5-ylmethyl}-acetamide] the melting point was 192 to 194 °C.
`N#CC=C1CCN(c2ccc(N3C[C@H](CNC(=O)C4CCCN4)OC3=O)cc2F)CC1` (stereo in doubt) [Example 25, (S)-N-{3-[4-(4-cyanomethylidene-piperidin-1-yl)-3-fluorophenyl]-2-oxo-oxazolidin-5-ylmethyl}-pyrrolidin-2-carboxamide] showed a melting point of 155 °C.
Compound `CCC(C#N)=C1CCN(c2ccc(N3C[C@H](CNC(=O)C(Cl)(Cl)Cl)OC3=O)cc2F)CC1` [Example 91, (S)-N-{3-[4-(4-(1-cyanopropylidene)-piperidin-1-yl)-3-fluorophenyl]-2-oxo-oxazolidin-5-ylmethyl}-trichloroacetamide] has a melting point of 150 to 152 °C.
For `CCC(C#N)=C1CCN(c2ccc(N3C[C@H](CNC(=O)CBr)OC3=O)cc2F)CC1` [Example 92, (S)-N-{3-[4-(4-(1-cyanopropylidene)-piperidin-1-yl)-3-fluorophenyl]-2-oxo-oxazolidin-5-ylmethyl}-bromoacetamide], the melting point was 200 to 203 °C.
